Target: Autotaxin (Homo sapiens (Human), UniProt Q13822)
Assay: Autotaxin LPC Cascade Assay
Type: biochemical
Settings: Autotaxin 5 nM, LPC 100 μM, choline oxidase/HRP/Ampliflu Red fluorescence read-out, 2% DMSO, RT; read-out: IC50 ATX Activity
Method: Autotaxin LPC Cascade Assay:
HA130 and Test Compounds:
Prepare a 1 mM stock of HA130 and a 3 mM stock of each compound in 100% DMSO. Perform a 1:3 serial dilution in DMSO (transfer 5 l of compound to 10 l of DMSO). Add 240 l of buffer to generate a top working concentration of 40 µM (HA130) and 120 µM (test compound) in 4% DMSO.
Ampliflu Red—Prepare a stock of 5 mM from 100 mM in 100% DMSO. Further dilute to a working concentration of 400 μM in buffer (8% DMSO).
Together with compound this yields a 2% DMSO final concentration.
Choline Oxidase/HRP—0.8 U/mL CO and 8 U/mL HRP.
Incubate for 10 mins at RT. Add 5 µl of LPC and incubate for 1 hr on the plate shaker. Prepare the CO/HRP and AR immediately prior to use. Add 2.5 l of CO/HRP and follow with 2.5 l AR. Note order of addition, CO/HRP mix before AR. Read fluorescence intensity (ex/em: 530/590 nm) kinetically for 30 min at RT on the Tecan M1000.

Row | Compound | IC50 [nM]
1 | COc1ccc(F)c(C(=O)N[C@@H](C(=O)N2CCC3(CC2)C(=O)N(C)C(=O)N3c2ccc3[nH]ncc3c2)C(C)C)c1 [Example 63, (R)—N-(1-(1-(1H-Indazol-5-yl)-3-methyl-2,4-dioxo-1,3,8-triazaspiro[4.5]decan-8-yl)-3-methyl-1-oxobutan-2-yl)-2-fluoro-5-methoxybenzamide] | 500 to 1000
2 | CC(C)[C@@H](NC(=O)c1cc(C(F)(F)F)ccc1F)C(=O)N1CCC2(CC1)C(=O)N(C)C(=O)N2Cc1ncccn1 [Example 111, (R)-2-Fluoro-N-(3-methyl-1-(3-methyl-2,4-dioxo-1-(pyrimidin-2-ylmethyl)-1,3,8-triazaspiro[4.5]decan-8-yl)-1-oxobutan-2-yl)-5-(trifluoromethyl)benzamide] | ≥ 1000
3 | CC(C)[C@@H](NC(=O)c1cc(C(F)(F)F)ccc1F)C(=O)N1CCC2(CC1)C(=O)N(C)C(=O)N2Cc1ccn2ccnc2c1 [Example 102, (R)-2-Fluoro-N-(1-(1-(imidazo[1,2-a]pyridin-7-ylmethyl)-3-methyl-2,4-dioxo-1,3,8-triazaspiro[4.5]decan-8-yl)-3-methyl-1-oxobutan-2-yl)-5-(trifluoromethyl)benzamide] | 500 to 1000
4 | COc1cc(N2CN(C)C(=O)C23CCN(C(=O)[C@H](NC(=O)c2cc(C(F)(F)F)ccc2F)C(C)C)CC3)ccc1C(=O)O [Example 151] | < 500
5 | CN1C(=O)N(Cc2ccc3nccnc3c2)C2(CCN(C(=O)[C@H](NC(=O)c3cc(C(F)(F)F)ccc3F)C3CCC3)CC2)C1=O [Example 110, (R)—N-(1-Cyclobutyl-2-(3-methyl-2,4-dioxo-1-(quinoxalin-6-ylmethyl)-1,3,8-triazaspiro[4.5]decan-8-yl)-2-oxoethyl)-2-fluoro-5-(trifluoromethyl)benzamide] | < 500
6 | COC(=O)c1ccc(N2C(=O)N(C)C(=O)C23CCN(C(=O)[C@H](NC(=O)c2cc(C(F)(F)F)ccc2F)C(C)C)CC3)cc1 [Example 221, (R)-Methyl-4-(8-(2-(2-fluoro-5-(trifluoromethyl)benzamido)-3-methylbutanoyl)-3-methyl-2,4-dioxo-1,3,8-triazaspiro[4.5]decan-1-yl)benzoate] | < 500
7 | CC(C)[C@@H](NC(=O)c1cc(C2CC2)ccc1F)C(=O)N1CCC2(CC1)C(=O)N(C)C(=O)N2c1ccc(C(=O)O)cc1 [Example 222, (R)-4-(8-(2-(5-Cyclopropyl-2-fluorobenzamido)-3-methylbutanoyl)-3-methyl-2,4-dioxo-1,3,8-triazaspiro[4.5]decan-1-yl)benzoic Acid] | < 500
8 | COc1cc(CN2C(=O)N(C)C(=O)C23CCN(C(=O)[C@H](NC(=O)c2cc(C(F)(F)F)ccc2F)C(C)C)CC3)ccn1 [Example 94, (R)-2-Fluoro-N-(1-(1-((2-methoxypyridin-4-yl)methyl)-3-methyl-2,4-dioxo-1,3,8-triazaspiro[4.5]decan-8-yl)-3-methyl-1-oxobutan-2-yl)-5-(trifluoromethyl)benzamide] | < 500
9 | COc1ccc(CN2C(=O)N(C)C(=O)C23CCN(C(=O)[C@H](NC(=O)c2cc(C(F)(F)F)ccc2F)C(C)C)CC3)cn1 [Example 97, (R)-2-Fluoro-N-(1-(1-((6-methoxypyridin-3-yl)methyl)-3-methyl-2,4-dioxo-1,3,8-triazaspiro[4.5]decan-8-yl)-3-methyl-1-oxobutan-2-yl)-5-(trifluoromethyl)benzamide] | < 500
10 | Cc1cc(N2CN(C)C(=O)C23CCN(C(=O)[C@H](NC(=O)c2cc(C(F)(F)F)ccc2F)C(C)C)CC3)ccc1C(=O)O [Example 158, (R)-4-(8-(2-(2-Fluoro-5-(trifluoromethyl)benzamido)-3-methylbutanoyl)-3-methy-4-oxo-1,3,8-triazaspiro[4.5]decan-1-yl)-2-methylbenzoic Acid] | ≥ 1000
11 | Cc1ccc(F)c(C(=O)N[C@@H](C(=O)N2CCC3(CC2)C(=O)N(C)CN3c2ccccc2)C(C)C)c1 [Example 141, (R)-2-Fluoro-5-methyl-N-(3-methyl-1-(3-methyl-4-oxo-1-phenyl-1,3,8-triazaspiro[4.5]decan-8-yl)-1-oxobutan-2-yl)benzamide] | < 500
12 | CN1C(=O)N(c2ccc3[nH]ncc3c2)C2(CCN(C(=O)[C@H](NC(=O)c3cc(C(F)(F)F)ccc3F)C3CCC3)CC2)C1=O [Example 58, (R)—N-(2-(1-(1H-Indazol-5-yl)-3-methyl-2,4-dioxo-1,3,8-triazaspiro[4.5]decan-8-yl)-1-cyclobutyl-2-oxoethyl)-2-fluoro-5-(trifluoromethyl)benzamide] | < 500
13 | COc1ccc(N2C(C)N(C)C(=O)C23CCN(C(=O)[C@H](NC(=O)c2cc(C(F)(F)F)ccc2F)C(C)C)CC3)cc1 (stereo partly drawn) [Example 209, 2-Fluoro-N-((2R)-1-(1-(4-methoxyphenyl)-2,3-dimethyl-4-oxo-1,3,8-triazaspiro[4.5]decan-8-yl)-3-methyl-1-oxobutan-2-yl)-5-(trifluoromethyl)benzamide] | < 500
14 | CCc1ccc(F)c(C(=O)N[C@@H](C(=O)N2CCC3(CC2)C(=O)N(C)CN3c2ccc3nc[nH]c3c2)C(C)C)c1 [Example 216, (R)—N-(1-(1-(1H-Benzo[d]imidazol-6-yl)-3-methyl-4-oxo-1,3,8-triazaspiro[4.5]decan-8-yl)-3-methyl-1-oxobutan-2-yl)-5-ethyl-2-fluorobenzamide] | < 500
15 | COC(=O)Nc1ccc(N2C(=O)N(C)C(=O)C23CCN(C(=O)[C@H](NC(=O)c2cc(C(F)(F)F)ccc2F)C(C)C)CC3)cc1 [Example 127, (R)-Methyl-4-(8-(2-(2-fluoro-5-(trifluoromethyl)benzamido)-3-methylbutanoyl)-3-methyl-2,4-dioxo-1,3,8-triazaspiro[4.5]decan-1-yl)phenylcarbamate] | 500 to 1000
16 | CC(C)[C@@H](NC(=O)c1cc(Cl)ccc1Cl)C(=O)N1CCC2(CC1)C(=O)N(C)C(=O)N2c1ccc2[nH]ncc2c1 [Example 65, (R)—N-(1-(1-(1H-Indazol-5-yl)-3-methyl-2,4-dioxo-1,3,8-triazaspiro[4.5]decan-8-yl)-3-methyl-1-oxobutan-2-yl)-2,5-dichlorobenzamide] | ≥ 1000
17 | CC(C)[C@@H](NC(=O)c1cc(C(F)(F)F)ccc1F)C(=O)N1CCC2(CC1)C(=O)N(C)C(=O)N2C1CC1 [Example 76, (R)—N-(1-(1-Cyclopropyl-3-methyl-2,4-dioxo-1,3,8-triazaspiro[4.5]decan-8-yl)-3-methyl-1-oxobutan-2-yl)-2-fluoro-5-(trifluoromethyl)benzamide] | 500 to 1000
18 | CN1C(=O)N(Cc2ccc3nccnc3c2)C2(CCN(C(=O)[C@H](NC(=O)c3cc(C(F)(F)F)ccc3F)C3CC3)CC2)C1=O [Example 109, (R)—N-(1-Cyclopropyl-2-(3-methyl-2,4-dioxo-1-(quinoxalin-6-ylmethyl)-1,3,8-triazaspiro[4.5]decan-8-yl)-2-oxoethyl)-2-fluoro-5-(trifluoromethyl)benzamide] | < 500
19 | Cc1cccc(C(=O)N[C@@H](C(=O)N2CCC3(CC2)C(=O)N(C)C(=O)N3c2ccccc2)C(C)C)c1F [Example 3, (R)-2-Fluoro-3-methyl-N-(3-methyl-1-(3-methyl-2,4-dioxo-1-phenyl-1,3,8-triazaspiro[4.5]decan-8-yl)-1-oxobutan-2-yl)benzamide] | 500 to 1000
